The values that follow are results of earlier work, collected in US10441535B2, “Nutraceutical confectionary composition containing caffeine and L-theanine” (NeuroGum, LLC, priority 2015, dated 2019).

The conditions of this series: human, in vivo.

Regarding N-Ethyl-L-glutamine [L-theanine], the elimination half-life was 1 to 2 h.
